Values quoted from earlier work as cited in patent US7378109B2, “Pharmaceutical composition for improving palatability of drugs and process for preparation thereof” (Council of Scientific and Industrial Research, priority 2004, dated 2008).

Conditions: humans, oral

- bioavailability: 32-50%
Structure (SMILES): CO/N=C(\C(=O)N[C@@H]1C(=O)N2C(C(=O)OC(C)OC(C)=O)=C(COC(N)=O)CS[C@H]12)c1ccco1 (stereo partly shown) [Cefuroxime axetil]
